Data: US11840686B2, “Modulation of prekallikrein (PKK) expression” (Ionis Pharmaceuticals, Inc., priority 2013, dated 2023)
Strand notation (5' to 3'): a small letter for the sugar, then the base; units joined by * are phosphorothioate-linked, units joined directly phosphodiester-linked; [ ] holds rarer units or linkages, { } end groups; capitals alone tell only the bases. e = 2'-O-(2-methoxyethyl) (MOE); [5mC] = 5-methylcytosine; d = 2'-deoxy (DNA)

Tests used:
[1] = tested on: basal vascular permeability; test: Combination of PKK and Factor 12 antisense oligonucleotides on basal vascular permeability (Example 16); assay type: in vivo, mouse; conditions: positive control: PBS + HOE-140 30 μg ip
Description: Mice were treated with varying doses of ISIS 410944, an antisense oligonucleotide targeting Factor 12, and ISIS 482584 in a basal vascular permeability model.
Group 1 consisted of 8 mice and was treated with PBS administered subcutaneously twice a week for 3 weeks. No other treatment was administered to Group 1 which served as a control group to measure the basal levels of vascular permeability.
Group 2 consisted of 4 mice and was treated with PBS administered subcutaneously twice a week for 3 weeks. At the end of the treatment period, the mice were intraperitoneally administered 30 μg of HOE-140. Group 2 served as a positive control for inhibition of basal vascular permeability.
Groups 3, 4, 5, 6, and 7 consisted of 8 mice each and were treated with 2.5 mg/kg, 5 mg/kg, 10 mg/kg, 20 mg/kg, or 40 mg/kg (corresponding to 5 mg/kg, 10 mg/kg, 20 mg/kg, 40 mg/kg, or 80 mg/kg per week), respectively of ISIS 482584 and ISIS 410944 each administered subcutaneously twice a week for 3 weeks. Groups 3-7 served as the experimental treatment groups for examining the effect of ISIS 410944 and ISIS 482584 on basal vascular permeability.
All the groups were then injected with 30 mg/kg of Evans Blue solution in the tail vein. The mice were sacrificed 30 min after the Evans Blue solution administration and colons, feet, ears, and intestines were harvested.
The harvested tissues from the feet, colon, intestines, and ears were placed in formamide solution overnight to leach out the Evans Blue dye. The formamide solution containing feet and ear tissue was heated to 55° C. and left overnight. Higher OD values are associated with higher levels of permeability.

[2] = Tail bleeding assay (Example 20); assay type: in vivo, mouse; conditions: BALB/c mice; for Bleeding: blood collected over 40 minutes
Description: Tail-bleeding was measured to observe whether treatment with ISIS 482584 causes excess bleeding or hemorrhage in mice.
Groups of 10 male BALB/c mice were treated with 10 mg/kg, 20 mg/kg, or 40 mg/kg of ISIS 482584, administered subcutaneously twice a week for 3 weeks (weekly doses of 20 mg/kg, 40 mg/kg, or 80 mg/kg). A control group of 8 BALB/c mice was treated with PBS, administered subcutaneously twice a week for 3 weeks.
Two days after the final treatment of ISIS oligonucleotides or PBS, mice were placed in a tail bleeding chamber. Mice were anesthetized in the chamber with isoflurane. Then, a small piece of tail (approximately 4 mm from the tip) was cut with sterile scissors. The cut tail was immediately placed in a 15 mL Falcon tube filled with approximately 10 mL of 0.9% NaCl buffer solution warmed to 37° C. The blood was collected over the course of 40 minutes. The saline filled tubes were weighed both before and after bleeding.

thrombus formation = test: Stenosis-induced inferior vena cava thrombosis model, thrombi weights (Example 22); assay type: in vivo, mouse; conditions: BALB/c mice; for Thrombi weight: 24 hrs after stenosis
Description: Reduced blood flow and endothelial damage are hallmarks of this model, also known as the St. Tomas model.
Four groups of 6-8 BALB/c mice were treated with 5 mg/kg, 10 mg/kg, 20 mg/kg, or 40 mg/kg of ISIS 482584, administered subcutaneously twice a week for 3 weeks (weekly doses of 10 mg/kg, 20 mg/kg, 40 mg/kg, or 80 mg/kg). A control group of 8 BALB/c mice was treated with PBS, administered subcutaneously twice a week for 3 weeks. Two days after the last dose of antisense oligonucleotide or PBS was administered, mice from all groups were anesthetized with 2.5% inhalant isoflurane. The IVC of the mice was exposed via a midline abdominal incision below the left renal vein, and was separated from the abdominal aorta by blunt dissection. A 6-0 silk tie (Ethicon, UK) was placed behind the blood vessel just below the left renal vein and a metal 4-0 suture (Ethicon, UK) was placed longitudinally over the IVC to tie the silk tie on top. The metal suture was then removed. Two neurovascular surgical clips (Braun Medical Inc, PA) were placed at two separate positions below the ligation for 20 seconds each, after which they were removed. The abdominal cavity contents were then replaced and the abdomen was closed. After 24 hrs, the IVC was exposed and checked for thrombi formation. All thrombi formed were collected and fixed in 10% formalin for 24 hrs.
The thrombi were weighed and the results are presented in Table 85, expressed in milligrams.

[3] = tested on: vascular permeability induced by ISIS 461756; test: C1-INH antisense oligonucleotide-induced vascular permeability, Evans Blue OD600 (Example 18); assay type: in vivo, mouse
Description: Vascular permeability induced by ISIS 461756, an antisense oligonucleotide which targets murine C1 inhibitor mRNA, increases vascular permeability in mice and replicates the pathology of hereditary angioedema. The effect of ISIS 482584 on this model was evaluated.
One group of 8 mice was treated with 40 mg/kg ISIS 482584 administered subcutaneously twice a week for 3 weeks (weekly dose of 80 mg/kg). A second group of 8 mice was treated with 40 mg/kg of the control oligonucleotide, ISIS 141923, administered subcutaneously twice a week for 3 weeks (weekly dose of 80 mg/kg). A third group of 8 mice was treated with PBS administered subcutaneously twice a week for 3 weeks. On day 14, all the groups were treated with 12.5 mg/kg ISIS 461756 administered subcutaneously twice a week for 3 weeks (weekly dose of 25 mg/kg). A control group of mice was treated with PBS administered subcutaneously twice a week for 3 weeks but was not administered ISIS 461756.
At the end of the treatment period, all the groups were injected with 30 mg/kg of Evans Blue solution into the tail vein. The mice were sacrificed 30 min after the Evans Blue solution administration and colons, feet, ears, and intestines were harvested. The liver was also harvested for RNA analysis.
The harvested tissues from the feet, colon, and intestines were placed in formamide solution overnight to leach out the Evans Blue dye. The formamide solution containing feet tissue was heated to 55° C. and left overnight. The color intensity of the dye-infused formamide solution was then measured at OD600 nm. The data is presented in Table 80 as percent increase or reduction compared to the PBS control not treated with ISIS 461756.

[4] = Kidney function: plasma BUN and creatinine in cynomolgus monkeys (Example 8)
Description: Prior to the study, the monkeys were kept in quarantine for a 30-day period, during which the animals were observed daily for general health. The monkeys were 2-4 years old and weighed between 2 and 4 kg. Ten groups of four randomly assigned male cynomolgus monkeys each were injected subcutaneously with ISIS oligonucleotide or PBS. PBS solution or ISIS oligonucleotides at a dose of 40 mg/kg were administered initially with a loading regimen consisting of four doses on the first week of the study (days 1, 3, 5, and 7), followed by a maintenance regimen consisting of once weekly administration starting on Day 14 (weeks 2 to 13). Subcutaneous injections were performed in clock-wise rotations at 4 sites on the back; one site per dose. The injection sites were delineated by tattoo, while sedated using ketamine, and were separated by a minimum of 3 cm.
To evaluate the effect of ISIS oligonucleotides on kidney function, the monkeys were fasted overnight. Approximately, 1.5 mL of blood samples were collected from all the study groups. Blood was collected in tubes without anticoagulant for serum separation. The tubes were kept at room temperature for a minimum of 90 min and then centrifuged at 3,000 rpm for 10 min. Levels of BUN and creatinine were measured using a Toshiba 120FR NEO chemistry analyzer (Toshiba Co., Japan).

[5] = Evans Blue OD600, all groups ISIS 461756 25 mg/kg/wk, pretreatment PBS or oligonucleotide 80 mg/kg/wk

NC(N)=NCCC[C@@H](N)C(=O)N[C@@H](CCCN=C(N)N)C(=O)N1CCC[C@H]1C(=O)N1C[C@H](O)C[C@H]1C(=O)NCC(=O)N[C@@H](Cc1cccs1)C(=O)N[C@@H](CO)C(=O)N1Cc2ccccc2C[C@@H]1C(=O)N1[C@H](C(=O)N[C@@H](CCCN=C(N)N)C(=O)O)C[C@@H]2CCCC[C@@H]21 [HOE-140, Icatibant, reference compound]
OD600 nm of Evans Blue dye, Colon [1]: 0.14
OD600 nm of Evans Blue dye, Ears [1]: 0.008
OD600 nm of Evans Blue dye, Feet [1]: 0.04
OD600 nm of Evans Blue dye, Intestines [1]: 0.08

ISIS 482584: 5-10-5 MOE gapmer targeting murine PKK, GGCATATTGGTTTTTGGAAT; SEQ ID NO: 2244 (antisense eG*eG*e[5mC]*eA*eT*dA*dT*dT*dG*dG*dT*dT*dT*dT*dT*eG*eG*eA*eA*eT)
Bleeding ([2]; 20 mg/kg/wk sc 3 weeks): 0.03 mL
Bleeding ([2]; 40 mg/kg/wk sc 3 weeks): 0.14 mL
Bleeding ([2]; 80 mg/kg/wk sc 3 weeks): 0.07 mL
tail bleeding ([2]; 10-40 mg/kg s.c. twice a week for 3 weeks): did not significantly affect bleeding
Thrombi weight (thrombus formation; 10 mg/kg/wk sc 3 weeks): 8 mg
Thrombi weight (thrombus formation; 20 mg/kg/wk sc 3 weeks): 6 mg
Thrombi weight (thrombus formation; 40 mg/kg/wk sc 3 weeks): 5 mg
Thrombi weight (thrombus formation; 80 mg/kg/wk sc 3 weeks): 3 mg
thrombus weight (thrombus formation; increasing doses 5-40 mg/kg s.c. twice a week for 3 weeks): corresponding decrease in thrombus weight
vascular permeability induced by ISIS 461756 ([3]; 40 mg/kg s.c. twice a week for 3 weeks): prevented vascular permeability induced by ISIS 461756
Percent change in vascular permeability compared to the untreated PBS control, Colon [3, 5]: −23%
Percent change in vascular permeability compared to the untreated PBS control, Feet [3, 5]: 2%
Percent change in vascular permeability compared to the untreated PBS control, Intestines [3, 5]: −25%

Tes Ges mCes Aes Aes Gds Tds mCds Tds mCds Tds Tds Gds Gds mCds Aes Aes Aes mCes Ae [ISIS 546254]
Plasma BUN ([4]; 40 mg/kg s.c.): 25.7 mg/dL
Plasma Creatinine ([4]; 40 mg/kg s.c.): 0.9 mg/dL
effect on kidney function ([4]; plasma chemistry): well tolerated in terms of the kidney function
